# System: HMG-CoA reductase
# Assay: HMG-CoA Reductase Inhibition Assay (in vitro, relative to compactin)
# Type: biochemical
# Conditions: IC50 compared with compactin determined simultaneously, compactin assigned 100; tested as sodium salt of dihydroxy acid form; solubilized rat liver microsomal enzyme
# Method: The intrinsic HMG-CoA reductase inhibition activity of the claimed compounds is measured in the in vitro protocol published in J. Med. Chem., 28, p. […] (1985) and described below: Male Holtzman Sprague-Dawley rats (225-250 g) were kept on reversed lighting and fed Purina rat chow containing 3% cholestyramine for 7 days preceding their sacrifice by CO2 asphyxiation. Livers were removed 6 hours into the dark cycle and used immediately to prepare microsomes. HMG-CoA reductase was solubilized from the freshly prepared microsomes by the method of Heller and Shrewsbury [J. Biol. Chem., 1976, 251, 3815]and purified through the second ammonium sulfate precipitation step as described by Kleinsek et al. [Proc. Natl. Acad. Sci. USA, 1977, 74, 1431]. […] The enzyme preparation was stored at -80° C. The assay is essentially the procedure of Shefer et al. [J. Lipid Res., 1972, 13, 402]. The complete assay medium contained the following in a total volume of 0.8 ml: phosphate buffer, pH 7.2, 100 mM; MgCl2, 3 mM; NADP, 3 mM; glucose-6-phosphate, 10 mM; glucose-6-phosphate dehydro-genase, 3 enzyme units; reduced glutathione 50 mM; HMG-CoA (glutaryl-3-^14 C, New England Nuclear), 0.2 mM (0.1 μCi); and partially purified enzyme stock solution, 100 μL. […] After a 40-minute incubation at 37° C. with shaking and exposure to air, the reaction was stopped by the addition of 0.4 mL of 8 N HCl. After an additional 30-minute incubation period at 37° C. to ensure the complete lactonization of mevalonic acid to mevalonolactone, 0.2 ml of the mixture was added to an 0.5×5.0 cm column containing 100-200 mesh Bio-Rex 5, chloride form (Bio-Rad), wetted with distilled water, as described by Alberts et al. [Proc. Natl. Acad. Sci. U.S.A., 1980, 77, 3967]. The unreacted [^14 C]HMG-CoA was absorbed on the resin and the [^14 C]mevalonolactone was eluted with distilled water (2×1 ml) directly into 7-ml scintillation vials. Five milliliters of Aquasol-2 (New England Nuclear) was added to each vial, and radioactivity was measured in a Packard Tri Carb Prias scintillation counter. IC50 values were determined by plotting percentage inhibition against test compound concentration and fitting a straight line to the resulting data by using the least-squares method.
row,SMILES,Relative Potency
1,"CCC(C)(C)C(=O)O[C@H]1C[C@@H](C(C)O)C[C@@H]2CC[C@H](C)[C@H](CC[C@@H](O)C[C@@H](O)CC(=O)O)[C@H]21 (single isomer, unassigned) [-- -- -- S CHOHCH3 (ISOMER A) 1,1-dimethylpropyl]",131
2,"CCC(C)(C)C(=O)O[C@H]1C[C@@H](C(=O)O)C=C2C=C[C@H](C)[C@H](CC[C@@H](O)C[C@@H](O)CC(=O)O)[C@H]21 [db -- db R CO2 H 1,1-dimethylpropyl]",94
3,"CCC(C)(C)C(=O)O[C@H]1C[C@H](C(=O)N(C)C)C=C2C=C[C@H](C)[C@H](CC[C@@H](O)C[C@@H](O)CC(=O)O)[C@H]21 [db -- db S CONMe2 1,1-dimethylpropyl]",82
4,"CCC(C)(C)C(=O)O[C@H]1C[C@H](C(C)O)C[C@@H]2CC[C@H](C)[C@H](CC[C@@H](O)C[C@@H](O)CC(=O)O)[C@H]21 (single isomer, unassigned) [-- -- -- R CHOHCH3 (ISOMER A) 1,1-dimethylpropyl]",111
5,CCC(C)C(=O)O[C@H]1C[C@@H](CO)C=C2C=C[C@H](C)[C@H](CC[C@@H](O)C[C@@H](O)CC(=O)O)[C@H]21 (stereo partly shown) [db -- db R CH2 OH sec-butyl],47
6,"CCC(C)(C)C(=O)O[C@H]1C[C@@H](C(=O)N(C)C)C[C@@H]2CC[C@H](C)[C@H](CC[C@@H](O)C[C@@H](O)CC(=O)O)[C@H]21 [-- -- -- S CONMe2 1,1-dimethylpropyl]",75
7,"CCC(C)(C)C(=O)O[C@H]1C[C@@H](CO)C[C@@H]2CC[C@H](C)[C@H](CC[C@@H](O)C[C@@H](O)CC(=O)O)[C@H]21 [-- -- -- S CH2 OH 1,1-dimethylpropyl]",86
8,"CCC(C)(C)C(=O)O[C@H]1C[C@@H](CO)C=C2CC[C@H](C)[C@H](CC[C@@H](O)C[C@@H](O)CC(=O)O)[C@H]21 [db -- -- R CH2 OH 1,1-dimethylpropyl]",213
9,C[C@H]1CC[C@H]2C[C@H](CO)C[C@H](OC(=O)C3CCCCC3)[C@@H]2[C@H]1CC[C@@H](O)C[C@@H](O)CC(=O)O [-- -- -- S CH2 OH cyclohexyl],33
10,CCC(C)C(=O)O[C@H]1C[C@H](C(=O)O)C=C2C=C[C@H](C)[C@H](CC[C@@H](O)C[C@@H](O)CC(=O)O)[C@H]21 (stereo partly shown) [db -- db S CO2 H sec-butyl],26
11,CCC(C)(C)C(=O)OC[C@H]1C=C2CC[C@H](C)[C@H](CC[C@@H](O)C[C@@H](O)CC(=O)O)[C@H]2[C@@H](OC(=O)C(C)(C)CC)C1,33
12,"CCC(C)(C)C(=O)O[C@H]1C[C@H](CO)C=C2C=C[C@H](C)[C@H](CC[C@@H](O)C[C@@H](O)CC(=O)O)[C@H]21 [db -- db S CH2 OH 1,1-dimethylpropyl]",189
13,"CCC(C)(C)C(=O)O[C@H]1C[C@@H](C(=O)O)C[C@@H]2CC[C@H](C)[C@H](CC[C@@H](O)C[C@@H](O)CC(=O)O)[C@H]21 [-- -- -- S CO2 H 1,1-dimethylpropyl]",79
14,"CCC(C)(C)C(=O)O[C@H]1C[C@@H](C(=O)OC(C)C)C[C@@H]2CC[C@H](C)[C@H](CC[C@@H](O)C[C@@H](O)CC(=O)O)[C@H]21 [-- -- -- S CO2 i-Pr 1,1-dimethylpropyl]",80
15,"CCC(C)(C)C(=O)O[C@H]1C[C@H](C(=O)O)C=C2C=C[C@H](C)[C@H](CC[C@@H](O)C[C@@H](O)CC(=O)O)[C@H]21 [db -- db S CO2 H 1,1-dimethylpropyl]",99
16,"CCC(C)(C)C(=O)O[C@H]1C[C@@H](C(N)=O)C[C@@H]2CC[C@H](C)[C@H](CC[C@@H](O)C[C@@H](O)CC(=O)O)[C@H]21 [-- -- -- S CONH2 1,1-dimethylpropyl]",107
17,CCC(C)(C)C(=O)O[C@H]1C[C@H](COC(=O)Nc2ccccc2)C=C2C=C[C@H](C)[C@H](CC[C@@H](O)C[C@@H](O)CC(=O)O)[C@H]21,726
18,"CCC(C)(C)C(=O)O[C@H]1C[C@@H](C(C)O)C[C@@H]2CC[C@H](C)[C@H](CC[C@@H](O)C[C@@H](O)CC(=O)O)[C@H]21 (single isomer, unassigned) [-- -- -- S CHOHCH3 (ISOMER B) 1,1-dimethylpropyl]",113
19,CCC(C)(C)C(=O)O[C@H]1C[C@@H](C(=O)N(C(=O)NC2CCCCC2)C2CCCCC2)C[C@@H]2CC[C@H](C)[C@H](CC[C@@H](O)C[C@@H](O)CC(=O)O)[C@H]21,100
20,"CCN(CC)C(=O)[C@@H]1C=C2C=C[C@H](C)[C@H](CC[C@@H](O)C[C@@H](O)CC(=O)O)[C@H]2[C@@H](OC(=O)C(C)(C)CC)C1 [db -- db S CONEt2 1,1-dimethylpropyl]",65
21,"CCC(C)(C)C(=O)O[C@H]1C[C@H](C(C)O)C[C@@H]2CC[C@H](C)[C@H](CC[C@@H](O)C[C@@H](O)CC(=O)O)[C@H]21 (single isomer, unassigned) [-- -- -- R CHOHCH3 (ISOMER B) 1,1-dimethylpropyl]",104
22,CCC(C)(C)C(=O)OC[C@H]1C[C@@H]2CC[C@H](C)[C@H](CC[C@@H](O)C[C@@H](O)CC(=O)O)[C@H]2[C@@H](OC(=O)C(C)(C)CC)C1,100
23,"CCC(C)(C)C(=O)O[C@H]1C[C@@H](C(O)c2ccccc2)C[C@@H]2CC[C@H](C)[C@H](CC[C@@H](O)C[C@@H](O)CC(=O)O)[C@H]21 (single isomer, unassigned) [-- -- -- S CHOHPH 1,1-dimethylpropyl]",220
24,"CCOC(=O)[C@H]1C[C@@H]2CC[C@H](C)[C@H](CC[C@@H](O)C[C@@H](O)CC(=O)O)[C@H]2[C@@H](OC(=O)C(C)(C)CC)C1 [-- -- -- S CO2 Et 1,1-dimethylpropyl]",125

# System: not listed separately
# Assay: Standing of the free dihydroxy acid (reversion to lactone)
# Type: physicochemical
# Conditions: free dihydroxy acid after isolation; can be maintained by increasing the pH above 7.0
# Method: The sodium salt of the compound II from Example 64 is dissolved in 2 ml of ethanol-water (1:1; v:v) and added to 10 ml of 1N hydrochloric acid from which the dihydroxy acid is extracted with ethyl acetate. The organic extract is washed once with water, dried (Na2 SO4), and evaporated in vacuo with a bath temperature not exceeding 30° C. […] The dihydroxy acid can be maintained by increasing the pH above 7.0.
row,SMILES,stability of the dihydroxy acid on standing
1,CCC(C)(C)C(=O)O[C@H]1C[C@@H](CO)C[C@@H]2CC[C@H](C)[C@H](CC[C@@H](O)C[C@@H](O)CC(=O)O)[C@H]21 [Example 70],"slowly reverts to the corresponding,parent lactone on standing"

# Reference: patent USRE36481E, “HMG-CoA reductase inhibitors” (Merck & Co., Inc., priority 1998, dated 2000)
